Like-named read-outs stand apart in the source and are kept apart here. Non-standard residues stand in square brackets, D forms with d. No end group written: not given here. *: point of attachment. Biotin = O=C1N[C@H]2[C@H](CS[C@H]2CCCCC(=O)*)N1; R(dz) = photo-arginine
Tested on: HEK293T nuclear lysates
Assay: SILAC‐based pull‐down proteomics H4K5acK8ac/H4K5 (probes 8/5)
Type: binding, human

probe 8: H4K5acK8ac peptide probe with photo‐arginine R(dz) and K(biotin) (SG[R(dz)]GK(Ac)GGK(Ac)GLGKGGK(Biotin))
A6 log2 (H4K5ac8ac/H4K5): 0.04066
B6 log2 (H4K5ac8ac/H4K5): 0.03161
proteins enriched (SILAC proteomics H4K5acK8ac/H4K5) (365 nm UV 30 min, streptavidin enrichment, n = 2): YEATS4 was enriched
A6 log2 (H4K5ac8ac/H4K5) (protein ACO2 (Q99798), replicate A6): 0.4428
B6 log2 (H4K5ac8ac/H4K5) (protein ACO2 (Q99798), replicate B6): 0.07379
A6 log2 (H4K5ac8ac/H4K5) (protein ACOT7 (O00154), replicate A6): 0.4709
B6 log2 (H4K5ac8ac/H4K5) (protein ACOT7 (O00154), replicate B6): -0.02566
A6 log2 (H4K5ac8ac/H4K5) (protein AGPS (O00116), replicate A6): -0.04144
B6 log2 (H4K5ac8ac/H4K5) (protein AGPS (O00116), replicate B6): 0.004198
A6 log2 (H4K5ac8ac/H4K5) (protein ALDH18A1 (P54886), replicate A6): 0.1932
B6 log2 (H4K5ac8ac/H4K5) (protein ALDH18A1 (P54886), replicate B6): 0.05067
A6 log2 (H4K5ac8ac/H4K5) (protein BUB3 (J3QT28), replicate A6): 0.07833
B6 log2 (H4K5ac8ac/H4K5) (protein BUB3 (J3QT28), replicate B6): 0.05185
A6 log2 (H4K5ac8ac/H4K5) (protein C11orf84 (Q9BUA3), replicate A6): -0.4738
B6 log2 (H4K5ac8ac/H4K5) (protein C11orf84 (Q9BUA3), replicate B6): -0.01921
A6 log2 (H4K5ac8ac/H4K5) (protein CCAR1 (Q8IX12), replicate A6): -0.2516
B6 log2 (H4K5ac8ac/H4K5) (protein CCAR1 (Q8IX12), replicate B6): -0.018
A6 log2 (H4K5ac8ac/H4K5) (protein CCT2 (P78371), replicate A6): 0.3921
B6 log2 (H4K5ac8ac/H4K5) (protein CCT2 (P78371), replicate B6): 0.08005
A6 log2 (H4K5ac8ac/H4K5) (protein CCT3 (B4DUR8), replicate A6): 0.2904
B6 log2 (H4K5ac8ac/H4K5) (protein CCT3 (B4DUR8), replicate B6): 0.07923
A6 log2 (H4K5ac8ac/H4K5) (protein CHAF1A (Q13111), replicate A6): -0.1099
B6 log2 (H4K5ac8ac/H4K5) (protein CHAF1A (Q13111), replicate B6): 0.08018
A6 log2 (H4K5ac8ac/H4K5) (protein CHD1L (A0A494C1F7), replicate A6): 0.1451
B6 log2 (H4K5ac8ac/H4K5) (protein CHD1L (A0A494C1F7), replicate B6): 0.0657
A6 log2 (H4K5ac8ac/H4K5) (protein CORO1B (Q9BR76), replicate A6): 0.2889
B6 log2 (H4K5ac8ac/H4K5) (protein CORO1B (Q9BR76), replicate B6): 0.06919
A6 log2 (H4K5ac8ac/H4K5) (protein CPOX (P36551), replicate A6): 0.124
B6 log2 (H4K5ac8ac/H4K5) (protein CPOX (P36551), replicate B6): 0.04785
A6 log2 (H4K5ac8ac/H4K5) (protein DNAJA2 (O60884), replicate A6): 0.3475
B6 log2 (H4K5ac8ac/H4K5) (protein DNAJA2 (O60884), replicate B6): -0.007896
A6 log2 (H4K5ac8ac/H4K5) (protein DYNC1LI1 (Q9Y6G9), replicate A6): 0.04173
B6 log2 (H4K5ac8ac/H4K5) (protein DYNC1LI1 (Q9Y6G9), replicate B6): -0.03653
A6 log2 (H4K5ac8ac/H4K5) (protein DYNC1LI2 (O43237), replicate A6): -0.06254
B6 log2 (H4K5ac8ac/H4K5) (protein DYNC1LI2 (O43237), replicate B6): -0.0172
A6 log2 (H4K5ac8ac/H4K5) (protein EEF1A2 (Q05639), replicate A6): 0.1545
B6 log2 (H4K5ac8ac/H4K5) (protein EEF1A2 (Q05639), replicate B6): 0.03088
A6 log2 (H4K5ac8ac/H4K5) (protein EIF3G (O75821), replicate A6): -0.1739
B6 log2 (H4K5ac8ac/H4K5) (protein EIF3G (O75821), replicate B6): 0.07863
A6 log2 (H4K5ac8ac/H4K5) (protein EML4 (Q9HC35), replicate A6): -0.3051
B6 log2 (H4K5ac8ac/H4K5) (protein EML4 (Q9HC35), replicate B6): 0.01001
A6 log2 (H4K5ac8ac/H4K5) (protein EXOSC10 (Q01780), replicate A6): 0.04791
B6 log2 (H4K5ac8ac/H4K5) (protein EXOSC10 (Q01780), replicate B6): -0.03432
A6 log2 (H4K5ac8ac/H4K5) (protein FEN1 (P39748), replicate A6): 0.2678
B6 log2 (H4K5ac8ac/H4K5) (protein FEN1 (P39748), replicate B6): 0.04436
A6 log2 (H4K5ac8ac/H4K5) (protein FKBP4 (Q02790), replicate A6): -0.547
B6 log2 (H4K5ac8ac/H4K5) (protein FKBP4 (Q02790), replicate B6): -0.03149
A6 log2 (H4K5ac8ac/H4K5) (protein FTO (A0A1B0GTY1), replicate A6): 0.04491
B6 log2 (H4K5ac8ac/H4K5) (protein FTO (A0A1B0GTY1), replicate B6): 0.03394
A6 log2 (H4K5ac8ac/H4K5) (protein FUBP1 (Q96AE4), replicate A6): -0.499
B6 log2 (H4K5ac8ac/H4K5) (protein FUBP1 (Q96AE4), replicate B6): 0.06296
A6 log2 (H4K5ac8ac/H4K5) (protein GATAD2B (A0A0U1RRM1), replicate A6): 0.09181
B6 log2 (H4K5ac8ac/H4K5) (protein GATAD2B (A0A0U1RRM1), replicate B6): -0.04991
A6 log2 (H4K5ac8ac/H4K5) (protein GMPS (P49915), replicate A6): 0.3016
B6 log2 (H4K5ac8ac/H4K5) (protein GMPS (P49915), replicate B6): -0.02008
A6 log2 (H4K5ac8ac/H4K5) (protein GPKOW (Q92917), replicate A6): -0.007755
B6 log2 (H4K5ac8ac/H4K5) (protein GPKOW (Q92917), replicate B6): 0.07952
A6 log2 (H4K5ac8ac/H4K5) (protein GTF2I (P78347), replicate A6): 0.3176
B6 log2 (H4K5ac8ac/H4K5) (protein GTF2I (P78347), replicate B6): -0.03285
A6 log2 (H4K5ac8ac/H4K5) (protein HADHA (P40939), replicate A6): 0.03109
B6 log2 (H4K5ac8ac/H4K5) (protein HADHA (P40939), replicate B6): 0.08176
A6 log2 (H4K5ac8ac/H4K5) (protein HNRNPA2B1 (P22626), replicate A6): -0.08912
B6 log2 (H4K5ac8ac/H4K5) (protein HNRNPA2B1 (P22626), replicate B6): 0.03979
A6 log2 (H4K5ac8ac/H4K5) (protein HNRNPAB (D6R9P3), replicate A6): -0.001487
B6 log2 (H4K5ac8ac/H4K5) (protein HNRNPAB (D6R9P3), replicate B6): 0.001897
A6 log2 (H4K5ac8ac/H4K5) (protein HNRNPD (D6RAF8), replicate A6): -0.05205
B6 log2 (H4K5ac8ac/H4K5) (protein HNRNPD (D6RAF8), replicate B6): 0.06546
A6 log2 (H4K5ac8ac/H4K5) (protein HNRNPM (A0A087X0X3), replicate A6): 0.04259
B6 log2 (H4K5ac8ac/H4K5) (protein HNRNPM (A0A087X0X3), replicate B6): 0.03533
A6 log2 (H4K5ac8ac/H4K5) (protein HNRNPUL1 (A0A0A0MRA5), replicate A6): 0.04263
B6 log2 (H4K5ac8ac/H4K5) (protein HNRNPUL1 (A0A0A0MRA5), replicate B6): 0.07976
A6 log2 (H4K5ac8ac/H4K5) (protein HSP90AB1 (P08238), replicate A6): 0.1705
B6 log2 (H4K5ac8ac/H4K5) (protein HSP90AB1 (P08238), replicate B6): -0.003539
A6 log2 (H4K5ac8ac/H4K5) (protein ILF3 (Q12906), replicate A6): -0.01185
B6 log2 (H4K5ac8ac/H4K5) (protein ILF3 (Q12906), replicate B6): 0.0307
A6 log2 (H4K5ac8ac/H4K5) (protein IRS4 (O14654), replicate A6): 0.9009
B6 log2 (H4K5ac8ac/H4K5) (protein IRS4 (O14654), replicate B6): 0.04996
A6 log2 (H4K5ac8ac/H4K5) (protein KHDRBS1 (Q07666), replicate A6): -0.03568
B6 log2 (H4K5ac8ac/H4K5) (protein KHDRBS1 (Q07666), replicate B6): 0.03173
A6 log2 (H4K5ac8ac/H4K5) (protein KIF23 (A0A2U3TZL8), replicate A6): -0.125
B6 log2 (H4K5ac8ac/H4K5) (protein KIF23 (A0A2U3TZL8), replicate B6): 0
A6 log2 (H4K5ac8ac/H4K5) (protein LARS (Q9P2J5), replicate A6): 0.1335
B6 log2 (H4K5ac8ac/H4K5) (protein LARS (Q9P2J5), replicate B6): 0.07151
A6 log2 (H4K5ac8ac/H4K5) (protein LEMD3 (Q9Y2U8), replicate A6): 0.3015
B6 log2 (H4K5ac8ac/H4K5) (protein LEMD3 (Q9Y2U8), replicate B6): -0.02986
A6 log2 (H4K5ac8ac/H4K5) (protein MAZ (I3L2Z5), replicate A6): 0.4619
B6 log2 (H4K5ac8ac/H4K5) (protein MAZ (I3L2Z5), replicate B6): 0.02009
A6 log2 (H4K5ac8ac/H4K5) (protein MCM2 (P49736), replicate A6): -0.3105
B6 log2 (H4K5ac8ac/H4K5) (protein MCM2 (P49736), replicate B6): 0.01892
A6 log2 (H4K5ac8ac/H4K5) (protein MCM4 (E5RG31), replicate A6): -0.08812
B6 log2 (H4K5ac8ac/H4K5) (protein MCM4 (E5RG31), replicate B6): 0.02676
A6 log2 (H4K5ac8ac/H4K5) (protein MCM5 (P33992), replicate A6): 0.07464
B6 log2 (H4K5ac8ac/H4K5) (protein MCM5 (P33992), replicate B6): 0.03074
A6 log2 (H4K5ac8ac/H4K5) (protein MCM6 (Q14566), replicate A6): 0.0904
B6 log2 (H4K5ac8ac/H4K5) (protein MCM6 (Q14566), replicate B6): 0.06523
A6 log2 (H4K5ac8ac/H4K5) (protein MLL2 (O14686), replicate A6): 0.2969
B6 log2 (H4K5ac8ac/H4K5) (protein MLL2 (O14686), replicate B6): 0.009441
A6 log2 (H4K5ac8ac/H4K5) (protein MRPL37 (Q9BZE1), replicate A6): 0.1893
B6 log2 (H4K5ac8ac/H4K5) (protein MRPL37 (Q9BZE1), replicate B6): -0.03363
A6 log2 (H4K5ac8ac/H4K5) (protein MYH9 (P35579), replicate A6): 0.0533

— paper PMC11005723, “Development of Complementary Photo‐arginine/lysine to Promote Discovery of Arg/Lys hPTMs Interactomes” (Advanced Science, 2024)
